Reference: PMC3337405 (Cancer Chemotherapy and Pharmacology, 2012)

Legend:
healthy volunteers [1] = assay: Thorough QT/QTc study: QTcF change from baseline on day 3 (12-lead ECG); type: in vivo, human; details: for QTcF change from time-matched baseline, Difference (Midostaurin – Placebo) / Upper bound of the one-sided 95% CI of Difference (Midostaurin – Placebo) in QTcF change: day 3; for QTcF change on day 3 from time-matched baseline: midostaurin arm
Source text: This study was a phase I, randomized, double-blind, placebo- and active-controlled, 3-way, parallel-group study conducted at a single center in the United States and approved by the Arkansas Research Medical Testing, LLC, Institutional Review Board. The design followed the recommendations of the International Conference on Harmonisation of Technical Requirements for Registration of Pharmaceuticals for Human Use (ICH) E14 guideline on “The Clinical Evaluation of QT/QTc Interval Prolongation and Proarrhythmic Potential for Non-Antiarrhythmic Drugs” [19]. As such, the trial included a concurrent positive control group and addressed intrinsic variability by conducting multiple ECGs at baseline and during the study. The study was conducted according to the ethical principles of the Declaration of Helsinki, and written informed consent was obtained from each subject during screening.
The treatment regimen was selected to achieve maximal plasma exposure for QTc evaluation while minimizing the risks of excessive or prolonged exposure in healthy volunteers.
The baseline comparison was from day −1 to day 3 at matched time points.
The following hypothesis was tested to confirm that the study had sufficient assay sensitivity: [drawing 3] [drawing 4] where μmoxi(t) was the mean QTcF change from baseline observed following moxifloxacin 400 mg at time point t. If the null hypothesis was rejected, the study had sufficient sensitivity. The Simes method was used for the protection of an experiment-wise 5% type I error [22, 23]. With the Simes method, the original P values corresponding to 0.5, 1, 2, 3, and 4 h post baseline are ordered increasingly, that is, P 1 ≤ P 2 ≤ P 3 ≤ P 4 ≤ P 5. After the Simes correction, the P values were 5P 1, 5P 2/2, 5P 3/3, 5P 4/4, and P 5 respectively. If any of the 5 adjusted P values were <.05, assay sensitivity was claimed. Only the participants who completed all scheduled doses of study medication from day 1 to day 3 and had at least 1 ECG on day −1 (baseline) and at least 1 ECG on day 3 (time-matched day 3 data for the time-matched analysis) were included in the assay sensitivity test.
Electrocardiogram measurements at each time point were calculated as an average of 3 separate ECG extractions or replicates. (Each extraction was the mean of 3 beats.) If fewer than 3 measurements were available, the available samples were averaged (i.e., a minimum of 1 measure was required). For each subject, the time-matched baseline value was subtracted from the QT/QTc intervals to determine the change from baseline in QT/QTc intervals for that subject. The 2 null hypotheses described above were tested in a linear mixed-effect model with a compound symmetry covariance structure. The model included the baseline measure as covariate and treatment, time, and the treatment-by-time interaction as fixed effects, where time was a categorical variable and subject was a random effect.
The time-matched analysis was conducted on the QTcF change from the time-matched baseline as recommended by the ICH E14 guideline. Although modeling change from the time-matched baseline was the primary analysis, the change from the time-averaged baseline was also analyzed using the same model. For the averaged baseline, each triplicate ECG collection was averaged first, and then the averaged baseline was calculated based on all the averaged triplicate ECG and unscheduled ECGs.
(§1) Standard triplicate 12-lead ECGs were obtained at 9 time points over 24 h at baseline on day 3 and at 2 time points on day 1. Electrocardiogram analysis was performed at a blinded central reading facility (ERT, East Bridgewater, NJ) in digital format, with paper tracings obtained and archived immediately on site. Vital signs were assessed daily. Clinical laboratory parameters were assessed at baseline and at the end of study. Self-reported adverse events were continuously recorded from the first study treatment (placebo, day −1) through the end of study on day 4.

healthy volunteers [2] = assay: Outlier analysis of QTc and other ECG parameters, ECG morphology; type: in vivo, human; details: for QTcB >30 ms, time-matched change from baseline, participants: text: 30- to 60-ms category
Method: Outlier analysis for QTc was also exploratory because this study was not powered to detect individuals with genetic sensitivity to potential QT-prolonging drugs. The nonspecific outlier criterion was a change from baseline in QTc interval of 30–60 ms.
as §1

healthy volunteers [3] = assay: Adverse events and discontinuations; type: in vivo, human
Method: as §1, with “Electrocardiogram” for “Standard triplicate 12-lead ECGs were obtained at 9 time points over 24 h at baseline on day 3 and at 2 time points on day 1. Electrocardiogram”

[4] = test system: patients with ASM, mast cell leukemia, or systemic mastocytosis; details: 100 mg twice daily; 26 patients; preliminary results; cited from earlier work
[5] = Plasma pharmacokinetics, noncompartmental analysis; details: human, plasma, 75 mg; for Cmax: mean (SD)
Method: Blood samples for PK analysis were collected predose and 0.5, 1, 2, 3, 4, 8, 12, and 24 h post dose on days 1 and 3 at the same time as ECG assessments. […] Noncompartmental analysis (WinNonlin™ version 5.2, Pharsight, Sunnyvale, California) was performed to determine the following PK parameters: C max, T max, minimum (trough) plasma concentration over a dosing interval (C min), and AUC calculated using a trapezoidal method. For moxifloxacin, the AUC from time 0 to the last measurable concentration sampling time was calculated (AUC0–tlast).

[6] = midostaurin, 24 h post dose on day 3

## CO[C@@H]1[C@H](N(C)C(=O)c2ccccc2)C[C@H]2O[C@]1(C)n1c3ccccc3c3c4c(c5c6ccccc6n2c5c31)C(=O)NC4 [Midostaurin, N-benzoylstaurosporin]
Healthy volunteers [1]; 0 h
  QTcF change from time-matched baseline, Difference (Midostaurin – Placebo): -2.7 ms
  Upper bound of the one-sided 95% CI of Difference (Midostaurin – Placebo) in QTcF change: 1.3 ms
  QTcF change on day 3 from time-matched baseline: -3.2 ms
Healthy volunteers [1]; 0.5 h
  QTcF change from time-matched baseline, Difference (Midostaurin – Placebo): -1.9 ms
  Upper bound of the one-sided 95% CI of Difference (Midostaurin – Placebo) in QTcF change: 2.1 ms
Healthy volunteers [1]; 1 h
  QTcF change from time-matched baseline, Difference (Midostaurin – Placebo): -3.7 ms
  Upper bound of the one-sided 95% CI of Difference (Midostaurin – Placebo) in QTcF change: 0.3 ms
Healthy volunteers [1]; 2 h
  QTcF change from time-matched baseline, Difference (Midostaurin – Placebo): -5.1 ms
  Upper bound of the one-sided 95% CI of Difference (Midostaurin – Placebo) in QTcF change: -1.1 ms
Healthy volunteers [1]; 3 h
  QTcF change from time-matched baseline, Difference (Midostaurin – Placebo): -3.9 ms
  Upper bound of the one-sided 95% CI of Difference (Midostaurin – Placebo) in QTcF change: 0.1 ms
Healthy volunteers [1]; 4 h
  QTcF change from time-matched baseline, Difference (Midostaurin – Placebo): -3.4 ms
  Upper bound of the one-sided 95% CI of Difference (Midostaurin – Placebo) in QTcF change: 0.6 ms
Healthy volunteers [1]; 8 h
  QTcF change from time-matched baseline, Difference (Midostaurin – Placebo): -0.7 ms
  Upper bound of the one-sided 95% CI of Difference (Midostaurin – Placebo) in QTcF change: 3.3 ms
Healthy volunteers [1]; 12 h
  QTcF change from time-matched baseline, Difference (Midostaurin – Placebo): -0.6 ms
  Upper bound of the one-sided 95% CI of Difference (Midostaurin – Placebo) in QTcF change: 3.4 ms
Healthy volunteers [1]; 24 h
  QTcF change from time-matched baseline, Difference (Midostaurin – Placebo): 0.7 ms
  Upper bound of the one-sided 95% CI of Difference (Midostaurin – Placebo) in QTcF change: 4.7 ms
Healthy volunteers [1]; midostaurin 75 mg twice daily days 1-2, once day 3, 24 h post dose on day 3, ECG set
  maximum mean QTcF change from time-matched baseline compared with placebo: 0.7 ms
Healthy volunteers [1]; 0.5 h after administration
  QTcF change on day 3 from time-matched baseline: -5.2 ms
Healthy volunteers [1]; 1 h after administration
  QTcF change on day 3 from time-matched baseline: -6.3 ms
Healthy volunteers [1]; 2 h after administration
  QTcF change on day 3 from time-matched baseline: -6.2 ms
Healthy volunteers [1]; 3 h after administration
  QTcF change on day 3 from time-matched baseline: -5.2 ms
Healthy volunteers [1]; 4 h after administration
  QTcF change on day 3 from time-matched baseline: -6.4 ms
Healthy volunteers [1]; 8 h after administration
  QTcF change on day 3 from time-matched baseline: -1.9 ms
Healthy volunteers [1]; 12 h after administration
  QTcF change on day 3 from time-matched baseline: -3.1 ms
Healthy volunteers [1]; 24 h after administration
  QTcF change on day 3 from time-matched baseline: -3.9 ms
Healthy volunteers [1]; [6]
  highest upper bound of 95% CI, QTcF change from time-averaged baseline compared with placebo: 4.9 ms
  maximum mean QTcF change from time-averaged baseline compared with placebo: 2.5 ms
Healthy volunteers [2]; 12-lead ECG
  new U-wave abnormalities: No new U-wave abnormalities
  new post baseline T-wave abnormalities: Three
Healthy volunteers [2]; midostaurin 75 mg twice daily
  effects on heart rate, atrioventricular conduction, cardiac depolarization (PR and QRS interval durations): no effects on heart rate, atrioventricular conduction, or cardiac depolarization
Healthy volunteers [2]; safety set
  PR increase ≥25% and resultant PR >200 ms, participants: 0 no. (%)
  QRS increase ≥25% and resultant QRS >100 ms, participants: 0 no. (%)
  QTcB >60 ms, time-matched change from baseline, participants: 0 no. (%)
  QTcF >30 ms, time-matched change from baseline, participants: 0 no. (%)
  QTcF >60 ms, time-matched change from baseline, participants: 0 no. (%)
  QTcI >30 ms, time-matched change from baseline, participants: 0 no. (%)
  QTcI >60 ms, time-matched change from baseline, participants: 0 no. (%)
  RR decrease ≥25% and resultant RR <600 ms, participants: 1 (1.3) no. (%)
  RR increase ≥25% and resultant RR >1,200 ms, participants: 1 (1.3) no. (%)
  QTcB >30 ms, time-matched change from baseline, participants: 1 (1.3) no. (%)
Healthy volunteers [2]; safety set, post baseline
  QTcF New >450 ms, participants: 0 no. (%)
Healthy volunteers [2]; safety set, post baseline, text: between 450 and 480 ms
  QTcB New >450 ms, participants: 1 (1.3%) no. (%)
Healthy volunteers [2]; safety set, listed as midostaurin
  QTcB >30 ms, time-matched change from baseline, participants: 1 (1.3%) no. (%)
Healthy volunteers [3]; human, in vivo
  Abdominal pain: 4 (5.1) no. (%)
  Arthralgia: 0 (0.0) no. (%)
  Diarrhea: 25 (31.6) no. (%)
  Discontinued, main cause Adverse event(s): 19 (23.8) no. (%)
  Dizziness: 0 (0.0) no. (%)
  Dry mouth: 0 (0.0) no. (%)
  Dysmenorrhea: 1 (1.3) no. (%)
  Dyspepsia: 1 (1.3) no. (%)
  Eructation: 3 (3.8) no. (%)
  Flatulence: 3 (3.8) no. (%)
  Flushing: 2 (2.5) no. (%)
  Headache: 5 (6.3) no. (%)
  Hiccups: 2 (2.5) no. (%)
  Hot flushes: 1 (1.3) no. (%)
  Nausea: 30 (38.0) no. (%)
  Pollakiuria: 0 (0.0) no. (%)
  Rash: 0 (0.0) no. (%)
  Salivary hypersecretion: 2 (2.5) no. (%)
  Sexually transmitted disease: 1 (1.3) no. (%)
  Tachycardia: 2 (2.5) no. (%)
  Vomiting: 19 (24.1) no. (%)
Healthy volunteers [3]; human, in vivo, 4 day
  Participants with adverse events: 43 (54.4) no. (%)
Healthy volunteers [3]; midostaurin arm, vomiting within 4 h of dosing
  discontinuations because of gastrointestinal events of vomiting: 17 n
Healthy volunteers [3]; randomized set
  Discontinued, main cause Adverse event(s): 19 no. (%)
  Discontinued, main cause Death: 0 (0.0) no. (%)
[4]
  overall response rate: 69%
[5]; oral, time of peak concentrations post dose, midostaurin dosing, days 1 and 3
  Tmax: 1 h
[5]; po, Day 1 (single dose), midostaurin 75 mg oral
  Cmax: 2140 ng/mL
[5]; po, Day 3 (twice daily), midostaurin 75 mg oral
  Cmax: 2270 ng/mL
[5]; po, Tmax, median (range), Day 1 (single dose), midostaurin 75 mg oral
  Tmax: 1 h
[5]; po, Tmax, median (range), Day 3 (twice daily), midostaurin 75 mg oral
  Tmax: 1.1 h
